The target of data set [1] is T1, Dihydroorotate dehydrogenase (quinone), mitochondrial (Homo sapiens, UniProt Q02127). Kind of data set: Inhibition of recombinant human DHODH expressed in baculovirus infected insect cells using dihydroorotate as substrate and decylubiquinone as co-substrate by 2,6-dichlorophenol-indophenol-coupled spectrophotometric analysis.
A further data set has as its system HeLa. The data set is described as follows: Antiproliferative activity against human HeLa cells assessed as reduction in cell viability measured after 48 hrs by MTT assay. In kind it is functional, cell-based. The settings on record: Homo sapiens, HeLa, 48 h. A general note: Tetrazolium assays rely on reduction of a dye to a coloured formazan, in cell work by metabolically active cells.

Another data set has as its system A549. Kind of data set: Antiproliferative activity against human A549 cells assessed as reduction in cell viability measured after 48 hrs by MTT assay. In kind it is functional, cell-based. The settings on record: Homo sapiens, A549, 48 h.
Data set [2] in a line: Solubility of the compound in PBS. In kind it is physicochemical.
A further data set deals with A-375. Kind of data set: Antiproliferative activity against human A375 cells assessed as reduction in cell viability measured after 48 hrs by MTT assay. In kind it is functional, cell-based. As to conditions: Homo sapiens, A-375, 48 h.
In another data set the test system is Raji. Kind of data set: Antiproliferative activity against human Raji cells assessed as reduction in cell viability measured after 48 hrs by MTT assay. In kind it is functional, cell-based. As to conditions: Homo sapiens, Raji, 48 h.
Another data set concerns HCT-116. Kind of data set: Antiproliferative activity against human HCT116 cells assessed as reduction in cell viability measured after 48 hrs by MTT assay. The settings on record: Homo sapiens, HCT-116, 48 h. In kind it is functional, cell-based.
The subject of the next data set is NAMALVA. The data set is described as follows: Antiproliferative activity against human NAMALWA cells assessed as reduction in cell viability measured after 48 hrs by MTT assay. In kind it is functional, cell-based. As to conditions: Homo sapiens, NAMALVA, 48 h.
Data set [3] concerns the target T1, Dihydroorotate dehydrogenase (quinone), mitochondrial. Kind of data set: Inhibition of human DHODH using dihydroorotate as substrate and CoQ10 as co-substrate preincubated for 30 mins followed by substrate addition by DCIP coupled microplate reader assay.
For a further data set, the system named is K562. The data set is described as follows: Antiproliferative activity against human K562 cells assessed as reduction in cell viability measured after 48 hrs by MTT assay. In kind it is functional, cell-based. The settings on record: Homo sapiens, K562, 48 h.
The next data set concerns MCF7. The data set is described as follows: Antiproliferative activity against human MCF7 cells assessed as reduction in cell viability measured after 48 hrs by MTT assay. In kind it is functional, cell-based. The settings on record: Homo sapiens, MCF7, 48 h.
The nature of data set [4]: Competitive inhibition of Plasmodium falciparum DHODH.

Values after ≈ are worked out from the molar mass of the structure shown.

T1 sequence (Q02127 whole entry): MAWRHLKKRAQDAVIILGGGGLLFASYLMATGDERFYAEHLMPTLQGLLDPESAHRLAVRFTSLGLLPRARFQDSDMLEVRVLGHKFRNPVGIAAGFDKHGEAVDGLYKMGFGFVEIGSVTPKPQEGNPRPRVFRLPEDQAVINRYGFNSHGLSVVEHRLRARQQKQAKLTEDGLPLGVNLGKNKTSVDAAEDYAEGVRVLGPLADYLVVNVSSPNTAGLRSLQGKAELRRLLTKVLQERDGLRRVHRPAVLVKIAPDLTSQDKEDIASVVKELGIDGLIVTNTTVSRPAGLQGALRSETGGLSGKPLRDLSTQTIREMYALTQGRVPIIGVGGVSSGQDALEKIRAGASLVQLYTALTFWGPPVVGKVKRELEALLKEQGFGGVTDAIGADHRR

Consider `O=C1C(O)=C(CC=C(Cl)Cl)C(=O)c2ccccc21`, for which the IC50 (in general, the point on the concentration scale where inhibition reaches its midpoint) in data set [1] was found to be 67 nM.

In the case of `COCc1cccc(-c2c(F)cc(-n3nnc4c3C(=O)c3ccccc3C4=O)cc2F)c1`, the IC50 in the data set on HeLa is above 10 µM; with A549, above 10 µM; with A-375 it was 180 nM; in the data set with Raji, 1230 nM; in the data set on HCT-116 it was 1130 nM; in the data set on NAMALVA, above 10 µM. Besides, the IC50 in data set [3] was 1.6 nM; in the data set on K562, above 10 µM; in the data set with MCF7, above 10 µM. In addition, in data set [2], the solubility (usually the concentration that dissolves in the medium under given conditions) was below 10 µg/mL.

For the compound `O=C1c2ccccc2C(=O)c2c1nnn2-c1cc(F)c(-c2cccc(F)c2)c(F)c1`, the IC50 in the data set on HeLa was above 10 µM; in the data set with A549, above 10 µM; in the data set with A-375 it was 190 nM; in the data set on Raji, 1510 nM; in the data set on HCT-116, 550 nM; with NAMALVA it was above 10 µM. Besides, the IC50 is 2.7 nM in data set [3], above 10 µM with K562 and above 10 µM in the data set with MCF7. The same compound gave a solubility in data set [2] below 10 µg/mL.

`O=C1c2ccccc2C(=O)c2c1nnn2-c1cc(F)c(-c2cccc(CO)c2)c(F)c1`: the IC50 with HeLa was above 10 µM; in the data set with A549, above 10 µM; in the data set with A-375 it was 30 nM; in the data set with Raji, 3310 nM; in the data set on HCT-116, 2210 nM; in the data set on NAMALVA it was above 10 µM. Moreover, the IC50 in [3] is 1.2 nM; in the data set on K562, above 10 µM; in the data set with MCF7, above 10 µM. The solubility in [2] was 14.6 µg/mL (≈ 35 µM).

As for `O=C1c2ccccc2C(=O)c2c1nnn2-c1cc(F)c(-c2cccc(CO)c2F)c(F)c1`, the 50% inhibitory concentration (IC50) was above 10 µM in the data set with HeLa; above 10 µM in the data set on A549; 30 nM in the data set with A-375; above 10000 nM in the data set on Raji; 150 nM in the data set with HCT-116; above 10 µM with NAMALVA. In addition, the IC50 in data set [3] was 1.2 nM; in the data set with K562 it was above 10 µM; in the data set on MCF7 it was above 10 µM. Besides, the solubility in data set [2] turned out to be 17.6 µg/mL (≈ 40.4 µM).

As for `O=C1C(O)=C([C@H]2CC[C@H](c3ccc(Cl)cc3)CC2)C(=O)c2ccccc21` [ATOVAQUONE], the affinity in [4], expressed as Ki, was 27 µM.

`OC1c2ccccc2C(O)c2c1nnn2-c1cc(F)c(-c2ccccc2F)c(F)c1` (configuration not stated): the IC50 in the data set on HeLa is above 10 µM; in the data set on A549, above 10 µM; in the data set on A-375, 160 nM; in the data set on Raji, above 10000 nM; with HCT-116 it was 580 nM; in the data set on NAMALVA, above 10 µM. Besides, the figures for the IC50 (in data set [3]; in the data set on K562; with MCF7) were 5.1 nM, above 10 µM and above 10 µM, respectively. For the same compound, the solubility in [2] was below 10 µg/mL.

As to `Nc1cccc(-c2ccc(-n3nnc4c3C(=O)c3ccccc3C4=O)cc2)c1`, the IC50 is above 10 µM in the data set on HeLa; above 10 µM with A549; 250 nM in the data set with A-375; 1360 nM in the data set on Raji; 880 nM in the data set on HCT-116; above 10 µM in the data set with NAMALVA. Also, the values for the IC50 (in [3]; in the data set on K562; in the data set with MCF7) were 3.1 nM, above 10 µM and above 10 µM, respectively. The solubility in data set [2] is below 10 µg/mL.

For the compound `COc1cc(-n2nnc3c2C(=O)c2ccccc2C3=O)ccc1-c1ccccc1`, the IC50 in the data set with HeLa was above 10 µM; in the data set on A549, above 10 µM; in the data set on A-375 it was 10 nM; in the data set with Raji, 790 nM; with HCT-116, 180 nM; with NAMALVA, above 10 µM. Besides, the values for the 50% inhibitory concentration (IC50) (in [3]; in the data set on K562; in the data set with MCF7) were 4.1 nM, 0.21 µM and above 10 µM, respectively. The solubility in [2] is 15.4 µg/mL (≈ 40.4 µM).

As to `CN(C)c1cccc(-c2c(F)cc(-n3nnc4c3C(=O)c3ccccc3C4=O)cc2F)c1`, the IC50 with HeLa is 2.02 µM; in the data set on A549, above 10 µM; in the data set with A-375 it was 20 nM; in the data set on Raji it was 2150 nM; in the data set with HCT-116 it was 410 nM; in the data set on NAMALVA, above 10 µM. The IC50 is 0.5 nM in data set [3], above 10 µM in the data set on K562 and above 10 µM with MCF7. Also, in data set [2], the solubility is below 10 µg/mL.

Source of the values: ChEMBL document CHEMBL4616673 (J Med Chem, 2020).
